The values below come from PubChem BioAssay (NCI).

Test systems include 786-0 renal; SK-MEL-5 melanoma; PC-3 prostate; SK-MEL-28 melanoma; HOP-92 NSCLC; SF-539 CNS; HOP-62 NSCLC; HL-60(TB) leukemia; LOX IMVI melanoma; RXF 393 renal.
Experiment in all cases: DTP human tumour cell line panel, 48 h

The structures appear in SMILES notation.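 Following 48 hours of exposure in 96-well plates, responses at five concentrations were used to interpolate endpoints linearly. GI50 marks 50% less growth. TGI is the concentration that stops growth completely.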

Take `Cc1cc(N2CCCCC2)nc(N(CCCNc2ccnc3cc(Cl)ccc23)Cc2ccco2)n1`: the GI50 in the assay on 786-0 renal was 1610 nM; with SK-MEL-5 melanoma, 1670 nM; in the assay on PC-3 prostate, 1980 nM; with SK-MEL-28 melanoma, 1620 nM; with HOP-92 NSCLC, 1380 nM; in the assay with SF-539 CNS, 1610 nM. Also, the GI50 with HOP-62 NSCLC was 1380 nM; with HL-60(TB) leukemia, 1940 nM; in the assay with LOX IMVI melanoma it was 1240 nM; in the assay with RXF 393 renal, 1520 nM. The total growth inhibition concentration (TGI) with 786-0 renal amounted to 3.27 µM; with SK-MEL-5 melanoma, 3.06 µM; in the assay on PC-3 prostate it was 5.61 µM; with SK-MEL-28 melanoma, 3.28 µM; in the assay on HOP-92 NSCLC, 3.95 µM; with SF-539 CNS it was 3.19 µM. In addition, the concentration for total growth inhibition (TGI) in the assay on HOP-62 NSCLC was 4.1 µM; in the assay on HL-60(TB) leukemia, 4.51 µM; in the assay on LOX IMVI melanoma, 2.65 µM; in the assay with RXF 393 renal, 3.44 µM.
In the case of `COc1cccc(C2c3cc4c(cc3OC(C)(O)C2C)OCO4)c1O` (centres undefined), the concentration for total growth inhibition (TGI) in the assay on 786-0 renal was 68.5 µM; in the assay on SK-MEL-5 melanoma, 16.9 µM; with PC-3 prostate, above 100 µM; in the assay on SK-MEL-28 melanoma, above 100 µM; with HOP-92 NSCLC, 47.3 µM; in the assay on SF-539 CNS, 8.65 µM. Further, the total growth inhibition concentration (TGI) in the assay with HOP-62 NSCLC amounted to 44.4 µM; in the assay on HL-60(TB) leukemia, 28 µM; in the assay with LOX IMVI melanoma, 50.4 µM; in the assay with RXF 393 renal, 34.1 µM.
On to `CC1=CC(=NC(=O)CBr)C=C/C1=N\S(=O)(=O)c1ccccc1`, for which the GI50 with 786-0 renal is 3370 nM; in the assay on SK-MEL-5 melanoma, 1790 nM; in the assay with PC-3 prostate, 3170 nM; with SK-MEL-28 melanoma, 6250 nM; with HOP-92 NSCLC, 1800 nM; in the assay with SF-539 CNS, 3490 nM. In addition, the GI50 in the assay with HOP-62 NSCLC is 11900 nM; in the assay with HL-60(TB) leukemia, 2780 nM; with LOX IMVI melanoma, 1680 nM; with RXF 393 renal it was 1770 nM. Also, the TGI was 10.8 µM in the assay with 786-0 renal; 3.98 µM in the assay on SK-MEL-5 melanoma; 13.2 µM in the assay with PC-3 prostate; 19.4 µM with SK-MEL-28 melanoma; 6.77 µM with HOP-92 NSCLC; 12 µM in the assay with SF-539 CNS. The total growth inhibition concentration (TGI) in the assay with HOP-62 NSCLC stood at 25.1 µM; in the assay on HL-60(TB) leukemia, 7.94 µM; with LOX IMVI melanoma, 3.24 µM; in the assay with RXF 393 renal it was 3.89 µM.
For `CN(C)c1ccc(N2Cc3ccccc3OC3=C2C(=O)c2c(O)ccc(O)c2C3=O)cn1`, the 50% growth inhibitory concentration (GI50) in the assay with 786-0 renal was 204 nM; in the assay with SK-MEL-5 melanoma, 722 nM; with PC-3 prostate it was 221 nM; with SK-MEL-28 melanoma, 275 nM; with HOP-92 NSCLC, 200 nM; in the assay with SF-539 CNS, 225 nM. Further, the GI50 is 1560 nM in the assay with HOP-62 NSCLC, 147 nM in the assay on HL-60(TB) leukemia, 160 nM with LOX IMVI melanoma and 152 nM with RXF 393 renal. The total growth inhibition concentration (TGI) in the assay on 786-0 renal amounted to 0.423 µM; with SK-MEL-5 melanoma, 2.01 µM; in the assay on PC-3 prostate it was 0.867 µM; in the assay on SK-MEL-28 melanoma, 0.762 µM; in the assay on HOP-92 NSCLC, 0.467 µM; in the assay on SF-539 CNS, 0.602 µM. Further, the total growth inhibition concentration (TGI) with HOP-62 NSCLC was 3.86 µM; in the assay with HL-60(TB) leukemia, 0.538 µM; in the assay on LOX IMVI melanoma, 0.48 µM; in the assay with RXF 393 renal, 0.318 µM.
As to `COc1cc(O)c2c(O)c3c(c4c2c1[C@]1(C4)C(C)=CCCC1(C)C)[C@H](O)[C@@]1(O)CC(=O)C(C(N)=O)=C(O)[C@@]1(O)C3=O`, the TGI was 1.62 µM in the assay with 786-0 renal; 0.399 µM with SK-MEL-5 melanoma; 0.834 µM in the assay on PC-3 prostate; 2.15 µM with SK-MEL-28 melanoma; 1.6 µM with HOP-92 NSCLC; 0.965 µM with SF-539 CNS. The TGI with HOP-62 NSCLC is 1.51 µM; in the assay with HL-60(TB) leukemia it was 0.485 µM; in the assay on LOX IMVI melanoma, 1.71 µM; in the assay with RXF 393 renal it was 2.13 µM.
For the molecule `C[C@@H]1CN(C(=O)c2ccc(NC(=O)c3cc(O[C@H](C)c4c(Cl)ccc(F)c4Cl)c(N)nn3)cc2)C[C@H](C)N1`, the GI50 in the assay with 786-0 renal was 4630 nM; in the assay with SK-MEL-5 melanoma, 1550 nM; in the assay on PC-3 prostate, 3650 nM; in the assay with SK-MEL-28 melanoma it was 1750 nM; in the assay with HOP-92 NSCLC it was 722 nM; in the assay on SF-539 CNS, 2210 nM. Besides, the GI50 in the assay on HOP-62 NSCLC is 2500 nM; in the assay with HL-60(TB) leukemia, 1210 nM; in the assay with LOX IMVI melanoma, 1460 nM; in the assay with RXF 393 renal, 1930 nM. Also, the TGI was 15.7 µM in the assay with 786-0 renal; 3.44 µM with SK-MEL-5 melanoma; 16.7 µM with PC-3 prostate; 3.86 µM in the assay on SK-MEL-28 melanoma; 5.18 µM with HOP-92 NSCLC; 5.07 µM in the assay on SF-539 CNS. The total growth inhibition concentration (TGI) was found to be 14.4 µM in the assay on HOP-62 NSCLC, 3.3 µM in the assay with HL-60(TB) leukemia, 3.04 µM in the assay with LOX IMVI melanoma and 5.29 µM with RXF 393 renal.
For the molecule `Cc1nn(-c2nc3ccccc3s2)c(C)c1Oc1ccccc1O`, the GI50 is 14600 nM in the assay on 786-0 renal; 1300 nM in the assay with SK-MEL-5 melanoma; 6580 nM in the assay with PC-3 prostate; 10200 nM with SK-MEL-28 melanoma; 162 nM with HOP-92 NSCLC; 2520 nM in the assay with SF-539 CNS. Also, the GI50 is 10600 nM in the assay with HOP-62 NSCLC, 4020 nM in the assay with HL-60(TB) leukemia, 2870 nM in the assay on LOX IMVI melanoma and 3090 nM in the assay with RXF 393 renal. Besides, the concentration for total growth inhibition (TGI) in the assay on 786-0 renal was 27.7 µM; in the assay on SK-MEL-5 melanoma it was 15.3 µM; with PC-3 prostate, above 100 µM; in the assay with SK-MEL-28 melanoma, 21.8 µM; in the assay on HOP-92 NSCLC it was 16.6 µM; in the assay with SF-539 CNS, 20.1 µM. For the same molecule, the TGI in the assay with HOP-62 NSCLC is 23.7 µM; in the assay on HL-60(TB) leukemia it was 18.1 µM; in the assay with LOX IMVI melanoma it was 16.9 µM; with RXF 393 renal, 8.38 µM.
For `Nc1nc(N)c(N=O)c(Nc2ccc(O)cc2)n1`, the total growth inhibition concentration (TGI) with 786-0 renal was above 95.5 µM; in the assay on SK-MEL-5 melanoma, above 100 µM; in the assay with PC-3 prostate, above 100 µM; in the assay with SK-MEL-28 melanoma, above 100 µM; in the assay on HOP-92 NSCLC, above 100 µM; in the assay on SF-539 CNS it was 16.3 µM. Further, the total growth inhibition concentration (TGI) in the assay on HOP-62 NSCLC is above 57.2 µM; in the assay on HL-60(TB) leukemia it was above 71.3 µM; in the assay on LOX IMVI melanoma, above 100 µM; with RXF 393 renal it was above 100 µM.
With `O=C(CN1CCN(c2ncnc3ccccc23)CC1)Nc1ccc(Cl)cc1C(=O)c1ccccc1Cl`, the GI50 is 356 nM in the assay with 786-0 renal; 500 nM in the assay on SK-MEL-5 melanoma; 818 nM with PC-3 prostate; 1030 nM with SK-MEL-28 melanoma; 542 nM in the assay with HOP-92 NSCLC; 383 nM with SF-539 CNS. The GI50 with HOP-62 NSCLC was 626 nM; in the assay on HL-60(TB) leukemia, 415 nM; with LOX IMVI melanoma it was 207 nM; in the assay on RXF 393 renal it was 610 nM. The TGI in the assay with 786-0 renal is 12.3 µM; in the assay on SK-MEL-5 melanoma, 2.7 µM; with PC-3 prostate, above 56.3 µM; in the assay with SK-MEL-28 melanoma, 3.36 µM; in the assay on HOP-92 NSCLC, 15.4 µM; in the assay on SF-539 CNS it was 1.3 µM. Besides, the figures for the TGI in the assay on HOP-62 NSCLC, in the assay with LOX IMVI melanoma and in the assay on RXF 393 renal were 6.07 µM, 0.471 µM and 1.31 µM, respectively.

The GI50 is the concentration at which growth is held to half of that of the control. What is called TGI is the concentration giving total growth inhibition. Lower therefore signals more potent growth arrest.
